Reference: PubChem BioAssay (NCI)
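Exposure lasted 48 hours, with cells grown in 96-well plates and compounds tested at five concentrations. TGI denotes the concentration required for complete inhibition of growth.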

Assays:
Test in all cases: growth of human tumour cells (NCI), 48 h
[1] = test system: 786-0 renal
[2] = test system: A498 renal
[3] = test system: A549 NSCLC
[4] = test system: ACHN renal
[5] = test system: CAKI-1 renal
[6] = test system: CCRF-CEM leukemia
[7] = test system: COLO 205 colon
[8] = test system: DLD-1 colon
[9] = test system: DMS 114 small cell lung
[10] = test system: DMS 273 small cell lung
[11] = test system: EKVX NSCLC
[12] = test system: HCC-2998 colon
[13] = test system: HCT-116 colon
[14] = test system: HCT-15 colon
[15] = test system: HL-60(TB) leukemia
[16] = test system: HOP-62 NSCLC
[17] = test system: HOP-92 NSCLC
[18] = test system: HT29 colon
[19] = test system: IGROV1 ovarian
[20] = test system: K-562 leukemia
[21] = test system: KM12 colon
[22] = test system: KM20L2 colon
[23] = test system: LOX IMVI melanoma
[24] = test system: LXFL 529 NSCLC
[25] = test system: M14 melanoma
[26] = test system: M19-MEL melanoma
[27] = test system: MALME-3M melanoma
[28] = test system: MOLT-4 leukemia
[29] = test system: NCI-H226 lung
[30] = test system: NCI-H23 lung
[31] = test system: NCI-H460 lung
[32] = test system: NCI-H522 lung
[33] = test system: OVCAR-3 ovarian
[34] = test system: OVCAR-4 ovarian
[35] = test system: OVCAR-5 ovarian
[36] = test system: OVCAR-8 ovarian
[37] = test system: RPMI-8226 leukemia
[38] = test system: RXF 393 renal
[39] = test system: SF-268 CNS
[40] = test system: SF-295 CNS
[41] = test system: SF-539 CNS
[42] = test system: SK-MEL-28 melanoma
[43] = test system: SK-MEL-5 melanoma
[44] = test system: SK-OV-3 ovarian
[45] = test system: SN12C renal
[46] = test system: SNB-19 CNS
[47] = test system: SNB-75 CNS
[48] = test system: SNB-78 CNS
[49] = test system: SR leukemia
[50] = test system: SW-620 colon
[51] = test system: TK-10 renal
[52] = test system: U251 CNS
[53] = test system: UACC-257 melanoma
[54] = test system: UACC-62 melanoma
[55] = test system: UO-31 renal
[56] = test system: XF 498 CNS
[57] = test system: SK-MEL-2 melanoma

Measured: TGI

O=C(Cc1ccccc1)Oc1ccc2c(-c3ccccc3)c(C(=O)Nc3ccc(Cl)cc3)c(=O)oc2c1
not listed: [57]
> 100 µM: all other assays above

N=C(N)/N=C(/C=C/c1ccccc1)CC1OC(=O)c2ccccc21 (centres undefined)
not listed: [17] | [30] | [33] | [35] | [40] | [42] | [44] | [48] | [51]
> 100 µM: all other assays above
